Test results: publication PMC11940343, “In Vitro and In Vivo Evaluation of the De Novo Designed Antimicrobial Peptide P6.2 Against a KPC-Producing P. aeruginosa Clinical Isolate” (Biomolecules, 2025)
Converted amounts (≈) assume the structure as drawn. Read-outs that look alike come from different tables or passages of the source.

Key:
[1] = system: Pseudomonas aeruginosa M13513; experiment: MIC by broth microdilution (CLSI); format: cell-based; conditions: two consecutive values shown where replicates varied by one dilution
Description: Pseudomonas aeruginosa M13513 is a clinical isolate carrying the carbapenemase KPC-2 (blaKPC-2 gene). This strain was generously supplied by the Servicio Antimicrobianos, Instituto Nacional de Enfermedades Infecciosas (INEI)-ANLIS “Dr. Carlos G. Malbrán” in Buenos Aires, Argentina.
For antimicrobial testing, bacterial cultures were maintained in Cation-Adjusted Mueller–Hinton Broth (CAMHB), following Clinical and Laboratory Standards Institute (CLSI) guidelines.
The minimal inhibitory concentration was assessed using a standard microdilution assay, following CLSI guidelines. Mueller–Hinton Broth (Laboratorios Britania S.A., Buenos Aires, Argentina) supplemented with Ca^2+ (20–25 mg/L) and Mg^2+ (10–12.5 mg/L) was used for the assay. The bacterial strains tested included Pseudomonas aeruginosa PAO1, Pseudomonas aeruginosa M13513, and Staphylococcus aureus ATCC® 25923.

Gram-negative bacteria = conditions: cited from earlier work
Description: This resistance arises from enzymatic inactivation by carbapenemases, as mentioned before, decreased cellular entry due to reduced expression of the outer membrane porins, and increased expression of efflux pumps.

[2] = Pseudomonas aeruginosa, M13513, CAMHB, read-out: MIC

Molecule | MIC ([1]; CAMHB) | MIC [1, 2] | other results
C[C@@H](O)[C@H]1C(=O)N2C(C(=O)O)=C(S[C@@H]3CN[C@H](C(=O)N(C)C)C3)[C@H](C)[C@H]12 [Meropenem, meropenem] | 512/1024 |  | 
NC[C@H]1O[C@H](O[C@H]2[C@H](O)[C@@H](O[C@H]3O[C@H](CO)[C@@H](O)[C@H](N)[C@H]3O)[C@H](N)C[C@@H]2N)[C@H](N)C[C@@H]1O [Tobramycin] |  | 1 mg/L (≈ 2.14 µM) | 
CNC(C)C1CCC(N)C(OC2C(N)CC(N)C(OC3OCC(C)(O)C(NC)C3O)C2O)O1 (centres unmarked) [Gentamicin] |  | 2 mg/L (≈ 4.19 µM) | 
C[C@@H](O)[C@H]1C(=O)N2C(C(=O)O)=C(SCCN=CN)C[C@H]12 [Imipenem] | 256/512 |  | 
polymyxin B |  |  | interaction with meropenem (Gram-negative bacteria): displays synergy with meropenem
